Measurements published in ChEMBL document CHEMBL6087406, “2-Arylhydrazinylidene-3-oxo-3-polyfluoroalkylpropanoic acids as selective and effective carboxylesterase inhibitors with powerful antioxidant potential” (Bioorg Med Chem, 2024).
Activity calls are given as the source filed them. The calls are words filed in the database; no cut-off is given here.

Experiments:
Liver carboxylesterase [1] = target: T1, Liver carboxylesterase (Sus scrofa, UniProt Q29550); experiment: Inhibition of porcine liver carboxylesterase using 4-nitrophenylacetate as substrate assessed as release of 4-nitrophenol by spectrophotometric analysis
T1 sequence (Q29550 whole entry): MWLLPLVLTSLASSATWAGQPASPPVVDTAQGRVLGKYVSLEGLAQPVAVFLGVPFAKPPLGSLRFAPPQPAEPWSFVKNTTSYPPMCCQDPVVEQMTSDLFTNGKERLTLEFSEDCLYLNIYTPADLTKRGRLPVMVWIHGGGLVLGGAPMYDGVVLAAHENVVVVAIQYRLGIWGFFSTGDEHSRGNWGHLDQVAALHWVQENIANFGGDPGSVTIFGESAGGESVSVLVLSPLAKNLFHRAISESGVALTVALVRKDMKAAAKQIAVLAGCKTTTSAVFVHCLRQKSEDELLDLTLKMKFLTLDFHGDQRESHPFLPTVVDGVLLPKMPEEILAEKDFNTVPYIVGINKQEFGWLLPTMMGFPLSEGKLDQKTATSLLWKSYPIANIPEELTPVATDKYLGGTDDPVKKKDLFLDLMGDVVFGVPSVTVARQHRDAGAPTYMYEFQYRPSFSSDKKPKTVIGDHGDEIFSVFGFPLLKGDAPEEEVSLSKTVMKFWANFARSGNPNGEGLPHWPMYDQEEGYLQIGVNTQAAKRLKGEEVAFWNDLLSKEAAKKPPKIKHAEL

[2] = Antioxidant activity assessed as ORAC radical scavenging activity by measuring fold change in trolox equivalent at 10 uM measured for 2 hrs by AAPH based fluorescence microplate reader relative to trolox; assay type: functional
[3] = target: Acetylcholinesterase (Homo sapiens) (UniProt P22303); experiment: Inhibition of human erythrocyte acetylcholinesterase using acetylthiocholine as substrate at 20 uM by Ellman's method relative to control
Sequence of Acetylcholinesterase (Homo sapiens) (P22303 whole entry): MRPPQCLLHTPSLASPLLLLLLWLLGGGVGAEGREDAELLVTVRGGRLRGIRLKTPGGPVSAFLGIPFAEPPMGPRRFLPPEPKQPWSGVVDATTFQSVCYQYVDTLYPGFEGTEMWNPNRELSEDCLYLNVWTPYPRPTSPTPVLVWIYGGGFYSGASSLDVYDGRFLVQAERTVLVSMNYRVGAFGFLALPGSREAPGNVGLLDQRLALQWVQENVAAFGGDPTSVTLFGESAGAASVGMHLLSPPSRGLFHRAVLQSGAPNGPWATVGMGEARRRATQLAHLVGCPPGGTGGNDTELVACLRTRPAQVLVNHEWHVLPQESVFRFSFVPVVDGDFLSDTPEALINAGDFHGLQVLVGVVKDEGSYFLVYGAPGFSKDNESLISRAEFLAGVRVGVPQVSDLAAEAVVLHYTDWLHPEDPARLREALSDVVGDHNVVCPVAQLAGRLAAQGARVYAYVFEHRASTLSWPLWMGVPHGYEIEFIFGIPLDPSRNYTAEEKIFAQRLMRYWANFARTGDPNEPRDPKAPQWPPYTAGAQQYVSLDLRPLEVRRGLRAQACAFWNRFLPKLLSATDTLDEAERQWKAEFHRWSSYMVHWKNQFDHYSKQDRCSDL

[4] = Antioxidant activity assessed as trolox equivalent of FRAP radical scavenging activity measured after 1 hrs by spectrophotometric analysis; assay type: functional
[5] = Antioxidant activity assessed as trolox equivalent of ORAC radical scavenging activity at 10 uM measured for 2 hrs by AAPH based fluorescence microplate reader; assay type: functional
[6] = Antioxidant activity assessed as ABTS radical scavenging activity by measuring trolox equivalent antioxidant capacity after 1 hrs by UV/Vis microplate spectrophotometric analysis; assay type: functional
[7] = target: Cholinesterase (Equus caballus) (UniProt P81908); experiment: Inhibition of equine serum butyrylcholinesterase using butyrylthiocholine as substrate at 20 uM by Ellman's method relative to control
Sequence of Cholinesterase (Equus caballus) (P81908 whole entry): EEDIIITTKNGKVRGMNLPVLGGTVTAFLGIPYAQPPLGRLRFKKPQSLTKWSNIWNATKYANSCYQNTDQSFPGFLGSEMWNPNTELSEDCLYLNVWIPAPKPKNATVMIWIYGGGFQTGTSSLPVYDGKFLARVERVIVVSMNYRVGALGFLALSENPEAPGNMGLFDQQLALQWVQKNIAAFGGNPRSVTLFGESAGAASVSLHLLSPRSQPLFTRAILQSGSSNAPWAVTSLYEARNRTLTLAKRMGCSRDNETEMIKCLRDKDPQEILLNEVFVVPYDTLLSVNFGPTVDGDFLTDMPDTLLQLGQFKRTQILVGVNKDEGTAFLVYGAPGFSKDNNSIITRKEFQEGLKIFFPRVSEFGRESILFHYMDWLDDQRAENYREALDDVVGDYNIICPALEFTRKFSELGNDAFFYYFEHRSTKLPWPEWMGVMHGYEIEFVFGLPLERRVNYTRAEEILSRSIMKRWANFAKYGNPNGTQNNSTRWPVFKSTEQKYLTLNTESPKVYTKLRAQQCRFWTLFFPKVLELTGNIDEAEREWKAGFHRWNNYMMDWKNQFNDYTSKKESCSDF

[8] = Antioxidant activity assessed as reduction in ABTS radical measured after 1 hrs by UV/Vis microplate spectrophotometric analysis; assay type: functional
Liver carboxylesterase [9] = target: T1, Liver carboxylesterase; experiment: Inhibition of porcine liver carboxylesterase using 4-nitrophenylacetate as substrate assessed as release of 4-nitrophenol at 20 uM by spectrophotometric analysis relative to control; details: pig, porcine liver carboxylesterase (isolated enzyme), probe 4-nitrophenylacetate
[10] = Antioxidant activity against AAPH-induced oxidative stress in Sprague-Dawley rat erythrocytes assessed as membrane stabilizing activity by measuring hemolysis at 100 uM preincubated for 15 mins followed by AAPH addition and measured after 3 hrs by microplate reader analysis (reference value: 88.6 +/- 3.7%); assay type: functional, Erythrocyte; details: time 195 min, 3.25 h
[11] = Antioxidant activity against AAPH-induced oxidative stress in Sprague-Dawley rat erythrocytes assessed as inhibition of lipid peroxidation by measuring fold change at 100 uM preincubated for 15 mins followed by AAPH addition and measured after 3 hrs by TBARS assay (reference value: 1); assay type: functional, Erythrocyte; details: time 195 min, 3.25 h
[12] = Hemolytic activity in AAPH-induced Sprague-Dawley rat erythrocytes assessed as hemolysis at 100 uM measured after 3 hrs by microplate reader analysis relative to control; assay type: toxicity, cell-based, Erythrocyte; details: read-out: Activity
[13] = Metal chelating activity assessed as Fe2+-compound complex formation by measuring absorbance at 400 uM measured after 30 mins in presence of FeCl2.4H2O by UV-Vis spectroscopic analysis (reference value: 253 to 384 nanometer)
[14] = Metal chelating activity assessed as Fe2+-compound complex formation by measuring absorbance at 400 uM measured after 30 mins in presence of FeCl2.4H2O by UV-Vis spectroscopic analysis (reference value: 245 to 373 nanometer)
Liver carboxylesterase 1 = target: T2, Liver carboxylesterase 1 (Homo sapiens, UniProt P23141); experiment: Inhibition of human CES1 using 4-nitrophenylacetate as substrate assessed as release of 4-nitrophenol by spectrophotometric analysis
T2 sequence (P23141 whole entry): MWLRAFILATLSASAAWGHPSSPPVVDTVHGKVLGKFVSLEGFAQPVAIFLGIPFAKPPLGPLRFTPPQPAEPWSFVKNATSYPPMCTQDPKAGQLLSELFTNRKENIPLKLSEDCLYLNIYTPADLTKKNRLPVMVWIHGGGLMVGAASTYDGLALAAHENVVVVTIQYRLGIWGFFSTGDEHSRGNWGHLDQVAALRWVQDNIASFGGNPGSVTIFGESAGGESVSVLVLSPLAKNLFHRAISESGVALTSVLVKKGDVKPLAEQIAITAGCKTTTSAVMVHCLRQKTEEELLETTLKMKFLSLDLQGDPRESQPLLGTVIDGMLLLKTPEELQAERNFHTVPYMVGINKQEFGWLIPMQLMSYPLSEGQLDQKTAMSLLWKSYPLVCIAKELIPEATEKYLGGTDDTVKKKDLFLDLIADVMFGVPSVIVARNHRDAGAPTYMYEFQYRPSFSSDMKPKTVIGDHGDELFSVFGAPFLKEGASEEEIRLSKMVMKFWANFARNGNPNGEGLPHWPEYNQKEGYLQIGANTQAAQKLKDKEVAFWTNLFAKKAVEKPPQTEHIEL

Cocaine esterase = target: T3, Cocaine esterase (Homo sapiens, UniProt O00748); experiment: Inhibition of human CES2 using 4-nitrophenylacetate as substrate assessed as release of 4-nitrophenol by spectrophotometric analysis
T3 sequence (O00748 whole entry): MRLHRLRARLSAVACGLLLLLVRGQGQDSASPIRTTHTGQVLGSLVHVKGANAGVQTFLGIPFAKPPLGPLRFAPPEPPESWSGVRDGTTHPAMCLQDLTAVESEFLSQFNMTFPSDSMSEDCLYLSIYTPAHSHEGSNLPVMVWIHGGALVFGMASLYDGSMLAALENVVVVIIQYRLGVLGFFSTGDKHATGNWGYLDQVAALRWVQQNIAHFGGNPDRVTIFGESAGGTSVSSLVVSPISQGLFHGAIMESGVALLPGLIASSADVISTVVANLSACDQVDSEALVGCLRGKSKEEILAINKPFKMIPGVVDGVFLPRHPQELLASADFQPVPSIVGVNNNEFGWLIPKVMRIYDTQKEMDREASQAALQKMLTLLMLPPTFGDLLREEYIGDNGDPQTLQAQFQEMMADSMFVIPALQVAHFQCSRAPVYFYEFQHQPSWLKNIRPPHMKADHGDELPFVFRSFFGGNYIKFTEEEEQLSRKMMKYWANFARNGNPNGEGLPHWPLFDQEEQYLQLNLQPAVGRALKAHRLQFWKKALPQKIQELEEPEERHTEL

[15] = Metal chelating activity assessed as Fe2+-compound complex formation by measuring absorbance at 400 uM measured after 30 mins in presence of FeCl2.4H2O by UV-Vis spectroscopic analysis (reference value: 225 to 374 nanometer)
Liver carboxylesterase [16] = target: T1, Liver carboxylesterase; experiment: Reversible mixed type inhibition of porcine liver carboxylesterase using 4-nitrophenylacetate as substrate assessed as inhibition constant of non-competitive component by Lineweaver-Burk plot analysis
Liver carboxylesterase [17] = target: T1, Liver carboxylesterase; experiment: Reversible mixed type inhibition of porcine liver carboxylesterase using 4-nitrophenylacetate as substrate assessed as inhibition constant of competitive component by Lineweaver-Burk plot analysis

Structure (SMILES)	IC50 (Liver carboxylesterase [1])	fold change (FC) [2]	inhibition [3]	Activity [4]	Activity [5]	Activity [6]	inhibition [7]	IC50 [8]	also measured
Cc1ccc(N/N=C(\C(=O)O)C(=O)C(F)(F)C(F)(F)F)cc1	0.122 µM	> 3	10.2%	1.71	3.7	1.45	15.5%	9.9 µM	
CC(=O)/C(=N/Nc1ccccc1)C(=O)O		> 3	4.7%	0.79	3.43	1.6	inactive	9.8 µM	inhibition at 20 µM (Liver carboxylesterase [9]): 17.9%
O=C(O)/C(=N\Nc1ccc([N+](=O)[O-])cc1)C(=O)C(F)(F)F		> 3		0.24					
Cc1ccc(N/N=C(\C(=O)O)C(=O)C(F)F)cc1		> 3	10.2%	2.1	3.13	1.67	inactive	9.8 µM	inhibition at 20 µM (Liver carboxylesterase [9]): 23.8%
COc1ccc(N/N=C(\C(=O)O)C(=O)C(F)(F)C(F)(F)C(F)(F)F)cc1	0.096 µM	> 3	19.4%	1.86	3.67	2.1	13.4%	8.2 µM	Activity [10]: 95.9%; fold change (FC) [11]: 0.63; hemolysis at 3 h, 100 µM [12]: 2%; Activity [13]: 271 nm
COc1ccc(N/N=C(/C(C)=O)C(=O)O)cc1		> 3		2.5	3.67				Activity [10]: 45.6%; fold change (FC) [11]: 0.24; hemolysis at 3 h, 100 µM [12]: 2%; Activity [14]: 263 nm
CC(=O)/C(=N/Nc1ccc(C)cc1)C(=O)O		> 3		1.69	3.37				
CC(=O)/C(=N/Nc1ccc(C(=O)O)cc1)C(=O)O		> 3	5.8%	0.41	2.2	1.25	8.2%	10.3 µM	inhibition at 20 µM (Liver carboxylesterase [9]): 18.6%
Cc1ccc(N/N=C(\C(=O)O)C(=O)C(F)(F)F)cc1		> 3		2.63	3.03				IC50 (Liver carboxylesterase 1): 0.921 µM; IC50 (Cocaine esterase): 0.097 µM
CCOC(=O)c1ccc(N/N=C(/C(C)=O)C(=O)O)cc1			inactive	0.19	0.47	1.36	inactive	10.2 µM	inhibition at 20 µM (Liver carboxylesterase [9]): 16.1%
Cc1c(C)c2c(c(C)c1O)CCC(C)(C(=O)O)O2 (configuration not stated) [TROLOX]				1	1	1		20.4 µM	Activity [10]: 56.7%; fold change (FC) [11]: 0.85
Cc1ccc(N/N=C(\C(=O)O)C(=O)C(F)(F)C(F)(F)C(F)(F)F)cc1	0.047 µM	> 3	14.7%	0.68	3.27	1.97	11.6%	9.1 µM	
CCOC(=O)c1ccccc1N/N=C(\C(=O)O)C(=O)C(F)(F)F		> 3							
COc1ccc(N/N=C(\C(=O)O)C(=O)C(F)(F)C(F)F)cc1	52.1 µM	> 3	4.2%	1.9	3.73	1.8	3.5%	10.2 µM	
COc1ccc(N/N=C(\C(=O)O)C(=O)C(F)(F)F)cc1		> 3		2.77	3.6				Activity [10]: 58.6%; Activity [15]: 267 nm; fold change (FC) [11]: 0.64; hemolysis at 3 h, 100 µM [12]: 2%
COc1ccc(N/N=C(\C(=O)O)C(=O)C(F)(F)C(F)(F)C(F)(F)C(F)(F)F)cc1	0.297 µM	> 3	4.4%	1.68	3.87	1.9	19.9%	9.5 µM	
O=[N+]([O-])c1ccc(OP(=O)(O)Oc2ccc([N+](=O)[O-])cc2)cc1			inactive				inactive		
Cc1ccc(N/N=C(\C(=O)O)C(=O)C(F)(F)C(F)(F)C(F)(F)C(F)(F)F)cc1	0.042 µM	> 3	9.8%	0.14	3.2	1.37	inactive	10.9 µM	Ki (Liver carboxylesterase [16]): 0.027 µM; Ki (Liver carboxylesterase [17]): 0.018 µM; IC50 (Liver carboxylesterase 1): 0.102 µM; IC50 (Cocaine esterase): 0.109 µM
CCOC(=O)c1ccccc1N/N=C(\C(=O)O)C(=O)C(F)(F)C(F)(F)C(F)(F)C(F)(F)F	0.14 µM	> 3	24%		1.7	0.02	13.7%		
Cc1ccc(N/N=C(\C(=O)O)C(=O)C(F)(F)C(F)F)cc1	5.58 µM	> 3	inactive	1.69		1.7	5.7%	9.3 µM	
O=C(O)/C(=N\Nc1ccccc1)C(=O)C(F)(F)F	0.75 µM	> 3	16.5%	1.48	3.7	1.6	4%	8.6 µM	
CCOC(=O)c1ccc(N/N=C(\C(=O)O)C(=O)C(F)(F)F)cc1		> 3							
